Where two headings read alike, the source gives them in different places.
How the values were obtained:
Assay in all cases: ITC
[1] = target: T1, EF-Tu; type: binding, Escherichia coli; settings: 20 °C, 50 mM Hepes pH 7.4, 40 mM NH4Cl, 2 mM MgCl2, 1 mM TCEP, nucleotide-free protein; read-out: affinity
T1 construct: gene tufA; full-length, His-tagged (pET-His-EF-Tu), expressed in E. coli BL21(DE3), nucleotide-free, unphosphorylated

[2] = target: T2, pEF-TuT382; type: binding, Escherichia coli; settings: 50 mM Hepes pH 7.4, 40 mM NH4Cl, 2 mM MgCl2, 1 mM TCEP, nucleotide-free protein, phosphorylated at T382
T2 construct: gene tufA; full-length His-tagged EF-Tu phosphorylated at T382 in vitro by toxin Doc with ATP, repurified by SEC

[3] = target: T1, EF-Tu; parameters: species or system Escherichia coli; settings: 50 mM Hepes pH 7.4, 40 mM NH4Cl, 2 mM MgCl2, 1 mM TCEP
Text: ITC on EF-Tu | consistent with the affinities measured with GDPNP

[4] = target: T2, pEF-TuT382; parameters: species or system Escherichia coli; settings: 50 mM Hepes pH 7.4, 40 mM NH4Cl, 2 mM MgCl2, 1 mM TCEP; phosphorylated at T382

Row | SMILES | Kd [1] [nM] | Kd ([2]; read-out: affinity) [nM] | Kd [3] [nM] | Kd [4] [nM] | Kd ([2]; read-out: Kd) [nM]
1 | Nc1nc2c(ncn2[C@@H]2O[C@H](COP(=O)(O)OP(=O)(O)O)[C@@H](O)[C@H]2O)c(=O)[nH]1 [GDP] | 4.5 | 5.7 | – | – | –
2 | Nc1nc2c(ncn2[C@@H]2O[C@H](COP(=O)(O)OP(=O)(O)NP(=O)(O)O)[C@@H](O)[C@H]2O)c(=O)[nH]1 [GDPNP, 5′-guanylyl imidodiphosphate] | – | – | 128 ± 8 | 320 ± 1 | –
3 | Nc1nc2c(ncn2[C@@H]2O[C@H](COP(=O)(O)OP(=O)(O)OP(O)(O)=S)[C@@H](O)[C@H]2O)c(=O)[nH]1 [GTPγS, guanosine-5′-(γ-thio)-triphosphate] | 81 | – | – | – | 90

Reference: article PMC5851678, “Phosphorylation decelerates conformational dynamics in bacterial translation elongation factors” (Science Advances, 2018)
